{"source": "ChEMBL document CHEMBL5113527", "about": "“First-in-Class Hydrazide-Based HDAC6 Selective Inhibitor with Potent Oral Anti-Inflammatory Activity by Attenuating NLRP3 Inflammasome Activation” (J Med Chem, 2022)", "key": {"[1]": {"test": "Brain concentration in CD-1 mouse at 20 mg/kg measured after 1 hrs by LC-MS/MS analysis", "type": "ADME, organism-based", "conditions": "read-out: Ct"}, "L02": {"system": "L02", "test": "Cytotoxicity against human HL7702 cells assessed as reduction in cell viability at 100 uM measured after 48 hrs by spectrophotometric analysis", "type": "toxicity, cell-based", "conditions": "l02, 48 h"}, "Histone deacetylase 1": {"target": "Histone deacetylase 1 (Homo sapiens, UniProt Q13547)", "sequence (Q13547 whole entry)": "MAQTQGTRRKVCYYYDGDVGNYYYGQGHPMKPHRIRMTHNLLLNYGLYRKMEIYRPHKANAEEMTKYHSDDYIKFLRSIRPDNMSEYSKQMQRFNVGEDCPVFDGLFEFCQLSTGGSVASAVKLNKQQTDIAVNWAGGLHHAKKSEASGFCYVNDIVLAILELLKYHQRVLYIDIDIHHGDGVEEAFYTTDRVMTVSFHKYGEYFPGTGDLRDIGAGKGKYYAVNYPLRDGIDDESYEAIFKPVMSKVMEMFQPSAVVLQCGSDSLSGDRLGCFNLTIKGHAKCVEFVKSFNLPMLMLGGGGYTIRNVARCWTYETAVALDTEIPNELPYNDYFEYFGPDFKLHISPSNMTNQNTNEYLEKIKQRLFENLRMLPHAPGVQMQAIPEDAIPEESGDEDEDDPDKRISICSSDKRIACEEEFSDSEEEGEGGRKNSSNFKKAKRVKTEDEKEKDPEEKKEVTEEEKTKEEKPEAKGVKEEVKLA", "test": "Binding affinity to recombinant HDAC1 (unknown origin) assessed as inhibition constant using Boc-Lys(acetyl)-AMC as substrate preincubated for 1 hr followed by substrate addition and measured after 2 hrs by fluorescence based microplate reader analysis"}, "[2]": {"test": "Brain concentration in CD-1 mouse at 20 mg/kg measured after 0.5 hrs by LC-MS/MS analysis", "type": "ADME, organism-based", "conditions": "read-out: Ct"}, "[3]": {"target": "T1, Protein deacetylase HDAC6 (Homo sapiens, UniProt Q9UBN7)", "T1 sequence (Q9UBN7 whole entry)": "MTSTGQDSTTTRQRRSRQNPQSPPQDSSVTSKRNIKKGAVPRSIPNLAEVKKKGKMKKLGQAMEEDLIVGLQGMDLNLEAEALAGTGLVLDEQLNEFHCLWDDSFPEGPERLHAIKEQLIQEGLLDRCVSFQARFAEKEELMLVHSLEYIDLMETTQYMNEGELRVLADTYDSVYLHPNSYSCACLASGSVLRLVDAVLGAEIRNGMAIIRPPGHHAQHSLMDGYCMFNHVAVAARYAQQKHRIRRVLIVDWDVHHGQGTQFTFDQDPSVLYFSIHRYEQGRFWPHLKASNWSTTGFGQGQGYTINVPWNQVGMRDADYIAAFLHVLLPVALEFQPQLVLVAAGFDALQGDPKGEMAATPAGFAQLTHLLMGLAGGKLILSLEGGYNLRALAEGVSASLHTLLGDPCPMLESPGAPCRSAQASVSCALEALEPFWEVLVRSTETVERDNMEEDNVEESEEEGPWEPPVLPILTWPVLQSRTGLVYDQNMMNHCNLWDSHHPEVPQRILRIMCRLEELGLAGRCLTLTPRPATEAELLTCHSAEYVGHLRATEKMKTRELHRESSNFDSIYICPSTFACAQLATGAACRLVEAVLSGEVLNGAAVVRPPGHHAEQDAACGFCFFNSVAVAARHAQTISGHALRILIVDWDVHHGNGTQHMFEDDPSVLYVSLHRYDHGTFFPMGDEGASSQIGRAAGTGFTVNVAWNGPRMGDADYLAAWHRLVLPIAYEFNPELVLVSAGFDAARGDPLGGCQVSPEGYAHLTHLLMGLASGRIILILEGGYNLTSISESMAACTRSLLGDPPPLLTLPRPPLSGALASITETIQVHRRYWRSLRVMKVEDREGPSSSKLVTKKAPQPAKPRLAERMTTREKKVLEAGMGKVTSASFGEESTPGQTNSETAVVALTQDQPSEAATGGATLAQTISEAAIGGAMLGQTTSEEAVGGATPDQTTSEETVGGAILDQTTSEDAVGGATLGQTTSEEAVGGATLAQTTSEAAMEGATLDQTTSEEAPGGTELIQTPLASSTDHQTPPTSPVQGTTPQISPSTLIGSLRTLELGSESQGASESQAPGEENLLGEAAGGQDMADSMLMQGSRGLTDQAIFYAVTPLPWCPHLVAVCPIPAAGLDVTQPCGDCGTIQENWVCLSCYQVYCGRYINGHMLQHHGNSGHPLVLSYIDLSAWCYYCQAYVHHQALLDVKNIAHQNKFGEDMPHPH", "test": "Inhibition of recombinant HDAC6 (unknown origin) using Boc-Lys(acetyl)-AMC as substrate preincubated for 1 hr followed by substrate addition and measured after 2 hrs by fluorescence based microplate reader analysis"}, "[4]": {"test": "Cmax in CD-1 mouse at 20 mg/kg, po measured after 0.083 to 24 hrs by LC-MS/MS analysis", "type": "ADME, organism-based", "set-up": "time 0.083-24 hrs, dose 20 mg/kg, route po", "conditions": "in vivo"}, "Mus musculus": {"system": "Mus musculus", "test": "Inhibition of LPS-induced endotoxic shock in C57BL/6 mouse model serum assessed as decrease in IL-1beta level at 20 mg/kg, ip measured after 12 hrs", "type": "functional, organism-based"}, "J774.A1 [5]": {"system": "J774.A1", "test": "Antiinflammatory activity against LPS primed mouse J774.A1 cells assessed suppression of LPS/ATP induced IL-beta release preincubated for 30 mins followed by ATP stimulation measured after 30 mins by ELISA", "type": "functional, cell-based"}, "J774.A1 [6]": {"system": "J774.A1", "test": "Inhibition of NLRP3 inflammasome activation in mouse J774.A1 cells assessed as cleavage of pro-caspase 1 to p20 measured at 5 to 20 microM after […] by Western blot analysis", "type": "functional, cell-based", "conditions": "dose 5-20 µM, DDE = dose-dependent effect"}, "Histone deacetylase 8": {"target": "T2, Histone deacetylase 8 (Homo sapiens, UniProt Q9BY41)", "T2 sequence (Q9BY41 whole entry)": "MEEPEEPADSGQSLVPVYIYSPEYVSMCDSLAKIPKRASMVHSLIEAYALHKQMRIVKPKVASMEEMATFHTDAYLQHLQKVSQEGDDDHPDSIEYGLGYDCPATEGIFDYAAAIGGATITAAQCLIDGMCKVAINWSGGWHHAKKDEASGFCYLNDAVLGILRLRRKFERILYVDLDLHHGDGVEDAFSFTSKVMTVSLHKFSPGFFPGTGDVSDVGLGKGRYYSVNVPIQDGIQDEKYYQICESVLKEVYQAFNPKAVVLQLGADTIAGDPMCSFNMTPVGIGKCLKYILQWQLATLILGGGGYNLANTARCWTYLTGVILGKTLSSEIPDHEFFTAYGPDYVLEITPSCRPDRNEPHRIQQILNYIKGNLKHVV", "test": "Inhibition of recombinant HDAC8 (unknown origin) using Boc-Lys (trifluoroacetyl) AMC as substrate preincubated for 1 hr followed by substrate addition and measured after 2 hrs by fluorescence based microplate reader analysis"}, "[7]": {"test": "Inhibition of HDAC11(unknown origin) preincubated for 1 hr followed by substrate addition and measured after 2 hrs by fluorescence based microplate reader analysis", "set-up": "species or system Homo sapiens"}, "[8]": {"test": "Cmax in CD-1 mouse at 5 mg/kg, iv measured after 0.083 to 24 hrs by LC-MS/MS analysis", "type": "ADME, organism-based", "set-up": "dose 5 mg/kg, time 0.083-24 hrs, route iv", "conditions": "in vivo"}, "Histone deacetylase 3": {"target": "Histone deacetylase 3 (Homo sapiens, UniProt O15379)", "sequence (O15379 whole entry)": "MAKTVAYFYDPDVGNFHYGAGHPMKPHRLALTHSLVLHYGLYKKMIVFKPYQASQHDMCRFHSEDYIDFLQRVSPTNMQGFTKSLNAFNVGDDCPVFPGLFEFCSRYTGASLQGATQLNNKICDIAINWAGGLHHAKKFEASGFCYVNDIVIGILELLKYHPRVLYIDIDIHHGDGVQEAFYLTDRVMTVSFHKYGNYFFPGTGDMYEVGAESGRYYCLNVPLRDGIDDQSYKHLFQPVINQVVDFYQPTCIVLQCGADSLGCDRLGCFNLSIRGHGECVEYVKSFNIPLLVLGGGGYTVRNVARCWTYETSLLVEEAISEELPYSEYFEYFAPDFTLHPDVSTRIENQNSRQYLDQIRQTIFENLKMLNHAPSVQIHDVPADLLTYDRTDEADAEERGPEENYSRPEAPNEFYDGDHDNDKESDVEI", "test": "Inhibition of recombinant HDAC3 (unknown origin) using Boc-Lys(acetyl)-AMC as substrate preincubated for 1 hr followed by substrate addition and measured after 2 hrs by fluorescence based microplate reader analysis"}, "Histone deacetylase 4": {"target": "Histone deacetylase 4 (Homo sapiens, UniProt P56524)", "sequence (P56524 whole entry)": "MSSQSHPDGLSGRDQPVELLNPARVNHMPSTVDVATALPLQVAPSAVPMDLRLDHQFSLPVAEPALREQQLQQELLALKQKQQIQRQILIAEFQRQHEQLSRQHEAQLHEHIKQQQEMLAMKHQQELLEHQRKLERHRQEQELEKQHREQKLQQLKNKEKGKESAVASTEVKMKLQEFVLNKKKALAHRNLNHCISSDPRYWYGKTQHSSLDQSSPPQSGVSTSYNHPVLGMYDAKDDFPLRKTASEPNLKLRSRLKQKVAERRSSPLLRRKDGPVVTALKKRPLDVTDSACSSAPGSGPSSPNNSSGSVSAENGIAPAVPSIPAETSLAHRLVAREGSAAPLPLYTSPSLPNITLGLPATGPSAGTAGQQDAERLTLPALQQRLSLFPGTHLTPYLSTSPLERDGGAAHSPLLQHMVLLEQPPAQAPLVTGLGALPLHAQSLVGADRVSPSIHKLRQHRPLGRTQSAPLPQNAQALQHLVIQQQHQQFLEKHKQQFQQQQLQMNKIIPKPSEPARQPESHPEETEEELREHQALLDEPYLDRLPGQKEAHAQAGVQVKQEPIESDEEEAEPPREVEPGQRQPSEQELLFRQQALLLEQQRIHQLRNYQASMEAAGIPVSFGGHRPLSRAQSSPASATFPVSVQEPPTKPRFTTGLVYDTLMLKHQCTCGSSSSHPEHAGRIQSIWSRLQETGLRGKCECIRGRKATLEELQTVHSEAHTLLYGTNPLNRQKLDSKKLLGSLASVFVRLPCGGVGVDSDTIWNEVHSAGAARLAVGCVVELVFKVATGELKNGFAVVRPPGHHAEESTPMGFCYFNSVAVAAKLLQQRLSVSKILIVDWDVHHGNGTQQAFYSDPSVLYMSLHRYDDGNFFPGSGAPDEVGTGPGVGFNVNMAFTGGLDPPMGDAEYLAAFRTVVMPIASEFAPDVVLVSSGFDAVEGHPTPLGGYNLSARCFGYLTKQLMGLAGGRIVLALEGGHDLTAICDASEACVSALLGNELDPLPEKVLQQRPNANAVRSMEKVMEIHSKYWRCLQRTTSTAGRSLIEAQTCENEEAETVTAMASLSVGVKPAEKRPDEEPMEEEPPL", "test": "Inhibition of recombinant HDAC4 (unknown origin) using Boc-Lys (trifluoroacetyl) AMC as substrate preincubated for 1 hr followed by substrate addition and measured after 2 hrs by fluorescence based microplate reader analysis"}, "[9]": {"test": "Half life in CD-1 mouse at 20 mg/kg, po measured after 0.083 to 24 hrs by LC-MS/MS analysis", "type": "ADME, organism-based", "conditions": "in vivo, time 0.083-24 hrs"}, "[10]": {"test": "Half life in CD-1 mouse at 5 mg/kg, iv measured after 0.083 to 24 hrs by LC-MS/MS analysis", "type": "ADME, organism-based", "conditions": "in vivo, time 0.083-24 hrs"}, "[11]": {"test": "Plasma concentration in CD-1 mouse at 20 mg/kg measured after 1 hrs by LC-MS/MS analysis", "type": "ADME, organism-based"}, "[12]": {"test": "AUC(0 to infinity) in CD-1 mouse at 20 mg/kg, po measured after 0.083 to 24 hrs by LC-MS/MS analysis", "type": "ADME, organism-based", "set-up": "dose 20 mg/kg, time 0.083-24 hrs, route po", "conditions": "in vivo"}}, "note": "The source made the active and inactive calls. No cut-off for these calls is given here.", "data": [{"compound": "CCNNC(=O)c1ccc(CN2c3ccccc3C=Cc3ccncc32)cc1", "values": [{"measurement": "concentration at 1 h", "setting": "[1]", "result": 7400, "unit": "ng/mL"}, {"measurement": "Activity", "setting": "L02", "result": "Non-Toxic"}, {"measurement": "Ki", "setting": "Histone deacetylase 1", "result": 875, "unit": "nM"}, {"measurement": "concentration at 0.5 h", "setting": "[2]", "result": 11300, "unit": "ng/mL"}, {"measurement": "IC50", "setting": "[3]", "result": 19, "unit": "nM"}, {"measurement": "Cmax", "setting": "[4]", "result": 5570, "unit": "ng/mL"}, {"measurement": "Activity", "setting": "Mus musculus", "result": "Active"}, {"measurement": "IC50", "setting": "J774.A1 [5]", "result": 2610, "unit": "nM"}, {"measurement": "Activity", "setting": "J774.A1 [6]", "result": "Dde"}, {"measurement": "IC50", "setting": "Histone deacetylase 8", "result": "> 5000", "unit": "nM"}, {"measurement": "IC50", "setting": "[7]", "result": "> 5000", "unit": "nM"}, {"measurement": "Cmax", "setting": "[8]", "result": 4600, "unit": "ng/mL"}, {"measurement": "IC50", "setting": "Histone deacetylase 3", "result": 1030, "unit": "nM"}, {"measurement": "IC50", "setting": "Histone deacetylase 4", "result": "> 5000", "unit": "nM"}, {"measurement": "half-life", "setting": "[9]", "result": 6.8, "unit": "h"}, {"measurement": "half-life", "setting": "[10]", "result": 7.95, "unit": "h"}, {"measurement": "concentration at 1 h", "setting": "[11]", "result": 5880, "unit": "ng/mL"}, {"measurement": "AUC(0-inf)", "setting": "[12]", "result": 10300, "unit": "ng·h/mL"}]}]}
